This passage reports IC50 results from ChEMBL document CHEMBL1140073, “6-Azido-7-nitro-1,4-dihydroquinoxaline-2,3-dione (ANQX) forms an irreversible bond to the active site of the GluR2 AMPA receptor” (J Med Chem, 2008).

For this assay, the target named is Glutamate receptor 2 (Homo sapiens, UniProt P42262). The experiment in a line: Inhibition of GluR2 receptor.
Sequence of Glutamate receptor 2 (P42262 whole entry): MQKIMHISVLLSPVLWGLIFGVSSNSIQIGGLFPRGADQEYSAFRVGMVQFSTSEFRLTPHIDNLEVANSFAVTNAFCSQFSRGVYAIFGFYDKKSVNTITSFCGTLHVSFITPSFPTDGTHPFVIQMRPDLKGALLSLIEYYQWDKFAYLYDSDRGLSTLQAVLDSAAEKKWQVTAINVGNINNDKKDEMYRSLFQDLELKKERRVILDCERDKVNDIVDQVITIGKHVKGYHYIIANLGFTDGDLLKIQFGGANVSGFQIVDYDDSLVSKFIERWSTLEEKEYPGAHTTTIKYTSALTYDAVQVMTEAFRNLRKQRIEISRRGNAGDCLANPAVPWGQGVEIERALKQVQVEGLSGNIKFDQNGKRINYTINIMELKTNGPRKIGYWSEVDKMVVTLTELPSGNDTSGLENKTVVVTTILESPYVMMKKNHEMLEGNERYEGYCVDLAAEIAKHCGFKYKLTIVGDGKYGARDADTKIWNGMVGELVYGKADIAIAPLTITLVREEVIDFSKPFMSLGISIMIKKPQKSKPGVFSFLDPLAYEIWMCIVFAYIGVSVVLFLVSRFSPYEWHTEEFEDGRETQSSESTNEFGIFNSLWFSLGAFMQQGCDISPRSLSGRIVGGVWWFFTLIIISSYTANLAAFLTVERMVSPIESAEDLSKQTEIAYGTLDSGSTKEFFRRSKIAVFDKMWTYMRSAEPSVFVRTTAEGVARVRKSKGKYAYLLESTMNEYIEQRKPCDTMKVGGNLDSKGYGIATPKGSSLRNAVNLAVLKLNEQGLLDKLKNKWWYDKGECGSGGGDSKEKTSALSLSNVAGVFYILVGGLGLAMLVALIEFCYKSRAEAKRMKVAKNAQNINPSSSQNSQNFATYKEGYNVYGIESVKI

`[N-]=[N+]=Nc1cc2[nH]c(=O)c(=O)[nH]c2cc1[N+](=O)[O-]` displayed an IC50 of 1 µM.

As to `O=c1[nH]c2cc3no[n+]([O-])c3cc2[nH]c1=O`, the IC50 came out at 7.6 µM.

Broadly, the IC50 is the concentration that gives 50% inhibition. A lower IC50 goes with higher potency.
